Laboratory results reported in publication PMC11356900, “Synthesis, Structural Properties and Biological Activities of Novel Hydrazones of 2-, 3-, 4-Iodobenzoic Acid” (Molecules, 2024).
Converted amounts (≈) assume the structure as drawn.

Tests used:
[1] = system: Staphylococcus aureus ATCC 43300; experiment: Broth microdilution MIC/MBC; details: ATCC43300 / MRSA
[2] = system: Pseudomonas aeruginosa ATCC 9027; experiment: Broth microdilution MIC/MBC; details: ATCC9027
[3] = system: Micrococcus luteus ATCC 10240; experiment: Broth microdilution MIC/MBC
[4] = system: Escherichia coli ATCC 25922; experiment: Broth microdilution MIC/MBC; details: ATCC25922
[5] = system: Bacillus subtilis ATCC 6633; experiment: Broth microdilution MIC/MBC; details: ATCC6633
[6] = system: Gram-positive bacteria; experiment: Broth microdilution, summary over reference Gram-positive bacteria; format: cell-based
Excerpt: (§1) Procedures of in vitro antimicrobial assays are described in Supplementary Materials.
(§2) 2. Microbiology – in vitro antimicrobial activity assays […]
(§3) using the broth microdilution method according to the European Committee on Antimicrobial Susceptibility Testing (EUCAST) and Clinical and Laboratory Standards Institute guidelines against a panel of reference and clinical or saprophytic strains of mi croorganisms, including the Gram-positive bacteria: Staphylococcus aureus ATCC 43300 (Methi-cillin Resistant S. aureus – MRSA), Staphylococcus aureus ATCC 29213 (Methicillin Susceptible S. aureus – MSSA), Staph-ylococcus epidermidis ATCC 12228, Micrococcus luteus ATCC 10240, Bacillus subtilis ATCC 6633 and Bacillus cereus ATCC 10876), Gram-negative bacteria: Bordetella bronchiseptica ATCC 4617, Escherichia coli ATCC 25922, Klebsiella pneumoniae ATCC 13883, Proteus mirabilis ATCC 12453, Salmonella typhimurium ATCC 14028 and Pseudomonas aeruginosa ATCC 9027, and fungi belonging to yeasts: Candida albicans ATCC 10231, Candida albicans ATCC 2091, Candida parapsilosis ATCC 22019, Candida glabrata ATCC 90030 and Candida krusei ATCC 14243. The microorganisms belonging to ATCC originated from American Type Culture Collection, routinely used for the evaluation of antimicrobials. All the used microbial cultures were first subcultured on nutrient agar or Sabouraud agar at 35°C for 18-24 h or 30°C for 24-48 h for bacteria […]
(§4) The surface of Mueller-Hinton agar (for bacteria) and RPMI 1640 with MOPS (for fungi) were inoculated with the suspensions of bacterial or fungal species. Microbial suspensions were prepared in sterile saline with an optical density of McFarland standard scale 0.5. The samples containing the compounds were dissolved in dimethyl sulfoxide (DMSO).
(§5) Furthermore, the bacterial and fungal suspensions put onto the Petri dishes with solid media containing 2 mg/mL of the tested compounds followed were incubated at 37°C for 24h and 30°C for 48h for bacteria and fungi, respectively.
(§6) The inhibition of microbial growth was estimated comparing with a control culture prepared without any tested sam- […]
(§7) antifungal compounds, respectively.
(§8) Subsequently, MIC (Minimal Inhibitory Concentration) of the compounds was examined by the microdilution broth method, using their two-fold dilutions in Mueller-Hinton broth (for bacteria) and RPMI 1640 broth with MOPS (for fungi) prepared in the 96-well polystyrene plates. The final concentrations of the compounds ranged from 1000 to 0.488 µg/mL. Microbial suspensions were prepared in 0.85% NaCl with an optical density of 0.5 McFarland standard. Next each bacterial or fungal suspension was added per each well containing broth and various concentrations of the exam-ined compounds. After incubation, the MIC was assessed spectrophotometrically as the lowest concentration of the […]
(§9) Appropriate DMSO, growth and sterile controls were carried out. The medium with no tested substances was used as a control The MBC (Minimal Bactericidal Concentration) and MFC (Minimal Fungicidal Concentration) are defined as the lowest concentration of the compounds that is required to kill a particular bacterial or fungal species. The MBC/MFC was determined by removing the culture used for the MIC determination from each well and spotted onto the appro-priate agar medium. The plates were incubated under appropriate conditions for bacteria and fungi. The lowest com-pounds concentration with no visible growth observed was assessed as a bactericidal/fungicidal concentration. All the experiments were repeated three times and the representative data are presented.
(§10) 1. European Committee for Antimicrobial Susceptibility Testing (EUCAST) Determination of minimum inhibitory con-centrations (MICs) of antibacterial agents by broth dilution. EUCAST discussion document E. Dis 5.1. Clin. Microbiol.
(§11) 2. Clinical and Laboratory Standards Institute. Reference method for broth dilution antifungal susceptibility testing of […]

[7] = system: Staphylococcus aureus ATCC 29213; experiment: Broth microdilution MIC/MBC; details: ATCC29213
[8] = system: Klebsiella pneumoniae ATCC 13883; experiment: Broth microdilution MIC/MBC; details: ATCC13883
[9] = system: Salmonella typhimurium ATCC 14028; experiment: Broth microdilution MIC/MBC; details: Salmonella enterica
[10] = system: Proteus mirabilis ATCC 12453; experiment: Broth microdilution MIC/MBC; details: ATCC12453
[11] = system: Staphylococcus aureus ATCC 25923; experiment: Broth microdilution MIC/MBC
[12] = system: Candida albicans ATCC 2091; experiment: Broth microdilution MIC/MFC; format: cell-based; details: for MIC: ATCC2091, read-out: MIC
Excerpt: as §1, §2, §3, §4, §5, §6, §7, §8, §9, §10, §11

[13] = system: Candida parapsilosis ATCC 22019; experiment: Broth microdilution MIC/MFC; format: cell-based; details: Lodderomyces parapsilosis; for MIC: ATCC22019, read-out: MIC; for MFC: ATCC22019, read-out: MFC
Excerpt: as §1, §2, §3, §4, §5, §6, §7, §8, §9, §10, §11

[14] = system: Candida krusei ATCC 14243; experiment: Broth microdilution MIC/MFC; format: cell-based; details: Pichia kudriavzevii, ATCC14243, read-out: MIC
Excerpt: as §1, §2, §3, §4, §5, §6, §7, §8, §9, §10, §11

[15] = system: Candida albicans ATCC 10231; experiment: Broth microdilution MIC/MFC; format: cell-based; details: for MIC: ATCC10231, read-out: MIC
Excerpt: as §1, §2, §3, §4, §5, §6, §7, §8, §9, §10, §11

[16] = system: Candida glabrata ATCC 90030; experiment: Broth microdilution MIC/MFC; format: cell-based; details: Nakaseomyces glabratus; for MIC: ATCC90030, read-out: MIC
Excerpt: as §1, §2, §3, §4, §5, §6, §7, §8, §9, §10, §11

[17] = system: Staphylococcus epidermidis ATCC 12228; experiment: Broth microdilution MIC/MBC; details: ATCC12228
[18] = system: Bordetella bronchiseptica ATCC 4617; experiment: Broth microdilution MIC/MBC; details: ATCC4617
[19] = system: Bacillus cereus ATCC 10876; experiment: Broth microdilution MIC/MBC
[20] = Staphylococcus aureus, ATCC25923

MIC [1] [mg/L] | MIC [2] [mg/L] | MIC ([3]; Micrococcus luteus, ATCC10240) [mg/L] | MIC [4] [mg/L] | MIC [5] [mg/L] | MIC [7] [mg/L] | MIC [8] [mg/L] | MIC [9] [mg/L] | MIC [10] [mg/L] | MIC [11, 20] [mg/L] | MIC [12] [mg/L] | MIC [13] [mg/L] | MIC [14] [mg/L] | MIC [15] [mg/L] | MIC [16] [mg/L] | MIC [17] [mg/L] | MIC [18] [mg/L] | MIC ([19]; Bacillus cereus, ATCC10876) [mg/L] | SMILES | MBC ([3]; Micrococcus luteus, ATCC10240) [mg/L] | MBC [5] [mg/L] | also measured
> 1000 | > 1000 | 500 (≈ 1150 µM) | > 1000 | 500 (≈ 1150 µM) | 1000 (≈ 2300 µM) | > 1000 | > 1000 | > 1000 | > 1000 | 1000 (≈ 2300 µM) | 1000 (≈ 2300 µM) | > 1000 | 500 (≈ 1150 µM) | 250 (≈ 575 µM) | > 1000 | > 1000 | > 1000 | O=C(N/N=C/c1cc(Cl)cc(Cl)c1O)c1ccc(I)cc1 [Compound 24, N-[(3,5-dichloro-2-hydroxyphenyl)methylidene]-4-iodobenzohydrazide] | > 1000 | > 1000 | MBC [7]: > 2000 mg/L; MFC ([12]; ATCC2091, read-out: MFC): > 1000 mg/L; MFC [13]: > 1000 mg/L; MFC ([15]; ATCC10231, read-out: MFC): > 1000 mg/L; MFC ([16]; ATCC90030, read-out: MFC): > 1000 mg/L; melting point: 281 to 284 °C
> 1000 | > 1000 | 31.2 (≈ 76.2 µM) | > 1000 | > 1000 | > 1000 | > 1000 | > 1000 | > 1000 | > 1000 | > 1000 | 250 (≈ 609 µM) | > 1000 | > 1000 | > 1000 | 1000 (≈ 2440 µM) | > 1000 | > 1000 | CCOc1cccc(/C=N/NC(=O)c2ccc(I)cc2)c1O [Compound 25, N-[(3-ethoxy-2-hydroxyphenyl)methylidene]-4-iodobenzohydrazide] | 62.5 (≈ 152 µM) |  | MFC [13]: > 1000 mg/L; MBC [17]: > 1000 mg/L; melting point: 200 to 207 °C
7.81 (≈ 32.8 µM) |  | 62.5 (≈ 262 µM) | 7.81 (≈ 32.8 µM) | 3.91 (≈ 16.4 µM) |  | 15.6 (≈ 65.6 µM) | 31.2 (≈ 131 µM) | 62.5 (≈ 262 µM) | 15.6 (≈ 65.6 µM) |  |  |  |  |  | 3.91 (≈ 16.4 µM) | 125 (≈ 525 µM) | 7.81 (≈ 32.8 µM) | O=C1CN(/N=C/c2ccc([N+](=O)[O-])o2)C(=O)N1 [NIT, nitrofurantoin, reference compound] | 62.5 (≈ 262 µM) | 3.91 (≈ 16.4 µM) | MIC ([3]; Micrococcus luteus ATCC 10240): 62.5 (62.5) µg/mL; MIC ([11]; Staphylococcus aureus ATCC 25923): 15.62 (15.62) µg/mL; MBC [11, 20]: 15.6 mg/L (≈ 65.6 µM); MBC [17]: 7.81 mg/L (≈ 32.8 µM); MBC ([19]; Bacillus cereus ATCC 10876): 15.62 mg/L (≈ 65.6 µM); MBC ([19]; Bacillus cereus, ATCC10876): 15.6 mg/L (≈ 65.6 µM)

SMILES | MIC [1] [mg/L] | MIC [2] [mg/L] | MIC ([3]; Micrococcus luteus, ATCC10240) [mg/L] | MIC [4] [mg/L] | MIC [5] [mg/L] | MIC [7] [mg/L] | MIC [8] [mg/L] | MIC [9] [mg/L] | MIC [10] [mg/L] | MIC [11, 20] [mg/L] | MIC [12] [mg/L] | MIC [13] [mg/L] | MIC [14] [mg/L] | MIC [15] [mg/L] | MIC [16] [mg/L] | MIC [17] [mg/L] | MIC [18] [mg/L] | MIC ([19]; Bacillus cereus, ATCC10876) [mg/L] | MBC ([3]; Micrococcus luteus, ATCC10240) [mg/L] | MBC [5] [mg/L] | also measured
O=C(N/N=C/c1cc(Cl)cc(Cl)c1O)c1cccc(I)c1 [Compound 17, N-[(3,5-dichloro-2-hydroxyphenyl)methylidene]-3-iodobenzohydrazide] | 15.6 (≈ 35.9 µM) | > 1000 | 15.6 (≈ 35.9 µM) | > 1000 | 7.81 (≈ 18 µM) | 15.6 (≈ 35.9 µM) | > 1000 | > 1000 | > 1000 | 31.2 (≈ 71.8 µM) | > 1000 | > 1000 | > 1000 | > 1000 | > 1000 | 15.6 (≈ 35.9 µM) | > 1000 | 15.6 (≈ 35.9 µM) | 15.6 (≈ 35.9 µM) | 15.6 (≈ 35.9 µM) | MBC [1]: 15.6 mg/L (≈ 35.9 µM); MIC [6]: 7.81 to 31.2 mg/L (≈ 18 to 71.8 µM); MBC [7]: 15.6 mg/L (≈ 35.9 µM); MBC [11, 20]: 31.2 mg/L (≈ 71.8 µM); MBC [17]: 62.5 mg/L (≈ 144 µM); MBC ([19]; Bacillus cereus, ATCC10876): 15.6 mg/L (≈ 35.9 µM); melting point: 210 to 212 °C
